Laboratory results published in PubChem BioAssay (NCI).
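Dose response: 5 concentrations. Exposure: 48 h. Format: 96-well plates. Endpoint: linear interpolation; highest concentration if not reached. At the GI50, growth is halved. At the TGI there is no net growth.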

Legend:
Assay in all cases: growth of human tumour cells (NCI), 48 h
[1] = tested on: SK-OV-3 ovarian
[2] = tested on: KM12 colon
[3] = tested on: A549 NSCLC
[4] = tested on: NCI-H522 lung
[5] = tested on: NCI-H460 lung
[6] = tested on: UACC-62 melanoma
[7] = tested on: A498 renal
[8] = tested on: SNB-19 CNS
[9] = tested on: PC-3 prostate
[10] = tested on: MDA-MB-435

| Structure (SMILES) | TGI [1] | TGI [2] | TGI [3] | TGI [4] | TGI [5] | TGI [6] | TGI [7] | TGI [8] | TGI [9] | TGI [10] | GI50 [9] | GI50 [1] | GI50 [2] | GI50 [5] | GI50 [6] | GI50 [10] | GI50 [8] |
| --- | --- | --- | --- | --- | --- | --- | --- | --- | --- | --- | --- | --- | --- | --- | --- | --- | --- |
| COC(=O)C1CCC(=O)N1C(=O)Cc1ccc(OC)cc1 (centres undefined) | > 100 µM | > 100 µM | > 100 µM | > 100 µM | > 100 µM | > 100 µM | > 100 µM | > 100 µM | – | – | – | – | – | – | – | – | – |
| COc1cc(/C=C/C(=O)c2c(=O)o[nH][n+]2-c2ccccc2)ccc1[O-] | 16.1 µM | 8.77 µM | 14.8 µM | 4.29 µM | 4.34 µM | 13.7 µM | 20.2 µM | 17.4 µM | 21.7 µM | 9.24 µM | – | – | – | – | – | – | – |
| COc1nc2c(c(=O)n1C)N[C@H]1[C@H](OC(C)=O)[C@@H](OC(C)=O)CO[C@H]1N2 | > 100 µM | > 100 µM | > 100 µM | > 100 µM | > 100 µM | > 100 µM | > 100 µM | > 100 µM | > 100 µM | > 100 µM | – | – | – | – | – | – | – |
| N/N=C1/C2CN3CCN(C2)CC1(c1ccc([N+](=O)[O-])cc1)C3 | – | > 100 µM | – | > 100 µM | – | > 100 µM | > 100 µM | > 100 µM | > 100 µM | > 100 µM | – | – | – | – | – | – | – |
| N#Cc1nc(CCCCCN2C(=O)c3ccccc3C2=O)oc1N | > 100 µM | > 100 µM | > 100 µM | 75.2 µM | > 100 µM | – | – | > 100 µM | > 100 µM | > 100 µM | – | – | – | – | – | – | – |
| C/C(=N\NC(=S)N1CCCCC1)c1cccc(C)n1 | – | 17.5 µM | 10.6 µM | 10.6 µM | 0.334 µM | 0.352 µM | 0.607 µM | > 36 µM | 19.7 µM | 16.8 µM | – | – | – | – | – | – | – |
| Clc1ccc(N2N=C(c3cccc(Nc4ccncc4)c3)CC2c2ccc3c(c2)OCO3)cc1 (centres undefined) | 24.1 µM | 3.18 µM | – | – | 3.29 µM | 3.32 µM | – | 4.51 µM | 3.27 µM | 3.02 µM | 1.58 µM | 4.31 µM | 1.67 µM | 1.77 µM | 1.76 µM | 1.53 µM | 1.94 µM |
| CCc1c(Cc2cccc3ccccc23)n2c(nc1=O)SCC2OCCO (centres undefined) | – | > 100 µM | > 100 µM | > 100 µM | > 100 µM | > 100 µM | > 100 µM | > 100 µM | > 100 µM | 38.4 µM | – | – | – | – | – | – | – |
| COC(=O)[C@H]1[C@@H](C(C)C)O[C@@H](C(C)C)O[C@H]1C(F)(F)F | > 100 µM | > 100 µM | > 100 µM | > 100 µM | > 100 µM | > 100 µM | > 100 µM | > 100 µM | > 100 µM | > 100 µM | – | – | – | – | – | – | – |
| Cc1cc(O)c(C(C)C)cc1SC#N | 37.6 µM | 31.4 µM | – | 24.9 µM | 33.4 µM | 28.7 µM | 31.9 µM | – | 34.4 µM | 27 µM | – | – | – | – | – | – | – |
| N#CC(C#N)=C1C(C#N)=C(N)NC12OCCO2 | > 100 µM | > 100 µM | > 100 µM | > 100 µM | > 100 µM | > 100 µM | > 100 µM | > 100 µM | > 100 µM | > 100 µM | – | – | – | – | – | – | – |
| Cc1ccc(S(=O)(=O)NNC(=O)c2cc(C)ccc2NC(=O)C23CC4CC(CC(C4)C2)C3)cc1 | 68.5 µM | > 100 µM | > 100 µM | 76.3 µM | > 100 µM | > 100 µM | – | 57.2 µM | > 100 µM | > 100 µM | – | – | – | – | – | – | – |
| CN(C)c1nc(N(C)C)nc(N(C)C23CC4CC(CC(C4)C2)C3)n1 | > 100 µM | > 100 µM | > 100 µM | 41 µM | > 100 µM | > 100 µM | > 100 µM | 96 µM | 72 µM | > 100 µM | – | – | – | – | – | – | – |
| COc1ccc2c(c1)C(N)=C(c1ccccc1)C2=O | > 100 µM | > 100 µM | > 100 µM | > 100 µM | > 100 µM | > 100 µM | > 100 µM | > 100 µM | > 100 µM | > 100 µM | – | – | – | – | – | – | – |
| Clc1ccc(Cc2nc3ccccc3nc2-c2cccc(Br)c2)cc1 | 31.2 µM | 33.7 µM | 35.6 µM | 3.62 µM | 42.2 µM | 4.01 µM | – | 3.14 µM | 4.88 µM | 4.71 µM | – | – | – | – | – | – | – |
| CO/C(=N\N=C\c1cccc(Cl)c1)c1ccncc1 | – | > 10 µM | > 10 µM | > 10 µM | > 10 µM | – | – | > 10 µM | > 10 µM | > 10 µM | – | – | – | – | – | – | – |
| c1ccc(CCNCc2ccco2)nc1 | > 100 µM | > 100 µM | > 100 µM | > 100 µM | > 100 µM | > 100 µM | > 100 µM | > 100 µM | > 100 µM | > 100 µM | – | – | – | – | – | – | – |
| Cc1ccc(C(=O)O)c(CC2Cc3c(C)cccc3C2=O)c1 (centres undefined) | > 100 µM | > 100 µM | > 100 µM | > 100 µM | > 100 µM | > 100 µM | – | > 100 µM | > 100 µM | > 100 µM | – | – | – | – | – | – | – |
| Cc1ccc(C(C)(C)C[P+](C)(c2ccccc2)c2ccccc2)cc1 | 64.2 µM | > 45.7 µM | > 100 µM | 19.1 µM | > 100 µM | 61.4 µM | > 100 µM | 89.3 µM | – | – | – | – | – | – | – | – | – |
| CC(=O)O[C@@H]1C[C@@]23C[C@@]24CC[C@H](OC2OCC(O)C(O)C2O)C(C)(C)[C@@H]4CC=C3[C@]2(C)C[C@@H]3OC4(C[C@@H](C)[C@@H]3[C@@]12C)OC(O)[C@@]1(C)O[C@@H]41 (some centres undefined) | 62.8 µM | > 100 µM | > 100 µM | 89.4 µM | 66.9 µM | 54.8 µM | > 100 µM | > 100 µM | 61.1 µM | > 100 µM | – | – | – | – | – | – | – |
| C=C(CCC(C)C1CCC2C3=C(C(=O)CC21C)C1(C)CCC(=O)[C@@H](C)C1CC3=O)C(C)C(=O)O (some centres undefined) | 5.46 µM | > 100 µM | > 100 µM | > 100 µM | > 100 µM | > 100 µM | > 100 µM | > 100 µM | > 100 µM | > 100 µM | – | – | – | – | – | – | – |
| O=C(/C(=C\C(=O)c1cccs1)c1ccsc1)c1ccc(Br)cc1 | > 100 µM | > 100 µM | > 100 µM | – | > 100 µM | > 100 µM | > 100 µM | > 100 µM | > 100 µM | > 100 µM | – | – | – | – | – | – | – |
